Patent US20240293422A1, “SHP2 AND CDK4/6 INHIBITORS COMBINATION THERAPIES FOR THE TREATMENT OF CANCER” (Erasca, Inc., priority 2021, published 2024)

How the values were obtained:
[1] = system: KRAS^G12S mutated A549 cells; experiment: Clonogenic assay (colony formation), A549; type: cell-based, human; details: for colony formation (in words): A549, 2000 cells per well, 14 days, crystal violet, various concentrations; for reduction of colony formation: A549, quantification FIG. 1B, each agent alone or combination, concentrations not given
Protocol: (§1) Cells and Reagents: The cell lines were obtained from ATCC (SW620 #CCL-227, A549 #CCL-185 and NCI-H441 #HTB-174). The cell lines, LS180 (ECACC #87021202) and Gp2D (ECACC #95090714). The cell line, CAL 27 was cultured in DMEM (Gibco #). SCC-4, SCC-15, SCC-25, SCC-9 cell lines were cultured in a 1:1 mixture of DMEM and Ham's F12 medium containing 1.2 g/L sodium bicarbonate, 2.5 mM L-glutamine, 15 mM HEPES and 0.5 mM sodium pyruvate supplemented with 400 ng/ml hydrocortisone, 90%; fetal bovine serum, 10% (Hyclone #SH-30071.03) and Penicillin/Streptomycin (Thermo Fisher #15070-063). The cells were maintained at 37° C./5% CO2.
(§2) Clonogenic assay: The cells were plated onto 6-well plates in 2 ml cell culture medium. The cells were incubated overnight and treated with various concentration of the compound of Formula I and Palbociclib. After 7 days incubation, the medium was replaced with fresh medium, cells were treated again with same concentration of the compound of Formula I and Palbociclib and incubated for additional 7 days. After 14 days of total incubation, the cells were washed with PBS twice and fixed 30 mins with 4% formaldehyde. The cells were washed twice with PBS and incubated with 0.1% crystal violet for 60 mins. After the crystal violet staining, the cells were washed five times with water and let it dry at room temperature. After the plates were dried, the crystal staining was de-stained with 1 ml of 10% acetic acid and absorbance was measured at 560 nm.
(§3) Cell lines from each of KRAS^G12D (LS513 and Gp2D), KRAS^G12S (A549) and KRAS^G12V (NCI-H441 and SW620) mutations were split onto 6-well plates in 2 ml cell culture medium. The cells were incubated overnight and treated with various concentration of the compound of Formula I and Palbociclib and assayed using the Clonogenic Assay protocol described above.
The A549 cells were split onto 6 well plates (2000 cells per well). After overnight incubation, the cells were treated with the compound of Formula I alone and treated in combination with palbociclib and colony formation was determined as mentioned in method. […] (FIG. 1A).

[2] = system: KRAS^G12V mutated NCI-H441 cells; experiment: Clonogenic assay (colony formation), NCI-H441; type: cell-based, human; details: for colony formation (in words): NCI-H441, 8000 cells per well, 14 days, crystal violet, various concentrations
Protocol: as §1, §2, §3
(§4) The NCI-H441 and SW620 cells were split onto 6 well plates (8000 and 4000 calls per well respectively). After overnight incubation, the cells were treated with the compound of Formula I alone and treated in combination with palbociclib and colony formation was determined as mentioned in method. […] (FIGS. 2A&3A). […] There was a pronounced inhibition of colony formation (about 80%) observed with combination of the compound of Formula I and palbociclib treatment. […] There was a pronounced inhibition of colony formation (about 60%) observed with combination of the compound of Formula I and palbociclib treatment.

[3] = system: KRAS^G12V mutated SW620 cells; experiment: Clonogenic assay (colony formation), SW620; type: cell-based; details: for colony formation (in words): SW620, 4000 cells per well, 14 days, crystal violet, various concentrations
Protocol: as §1, §2, §3, §4

[4] = system: KRAS^G12D mutated LS-180 cells; experiment: Clonogenic assay (colony formation), LS-180; type: cell-based; details: for colony formation (in words): LS-180, 4000 cells per well, 14 days, crystal violet, various concentrations
Protocol: as §1, §2, §3
(§5) The LS-180 and Gp2D cells were split onto 6 well plates (4000 and 8000 calls per well respectively). After overnight incubation, the cells were treated with the compound of Formula I alone and treated in combination with palbociclib and colony formation was determined as mentioned in method. […] (FIGS. 4A&5A). […] There was a pronounced inhibition of colony formation (about 50%) observed with combination of the compound of Formula I and palbocilib treatment. […] There was a pronounced inhibition of colony formation (about 50%) observed with combination of the compound of Formula I and palbocilib treatment.

[5] = system: KRAS^G12D mutated Gp2D cells; experiment: Clonogenic assay (colony formation), Gp2D; type: cell-based, human; details: for colony formation (in words): 8000 cells per well, 14 days, crystal violet, various concentrations
Protocol: as §1, §2, §3, §5

[6] = system: KRAS^G12S mutant NSCLC xenograft model A549; experiment: Antitumor efficacy in A549 xenograft mouse model; type: in vivo, Female Balb/c nude mice; details: 28 days
Protocol: Reagents: The vehicle/control article, 100 mM acetic acid in deionized water, with pH adjustment to 4.8-5.0, was prepared and stored under ambient conditions throughout the 28-day administration in mice. The test article compound of Formula I was freshly prepared in vehicle of 100 mM acetic buffer weekly and stored under ambient conditions. The combination agent palbociclib was freshly prepared in vehicle of 50 mM Sodium Lactate Buffer, pH 3.8-4.0 weekly and stored at 2-8° C.
Animals: Female Balb/c nude mice were purchased from the Beijing Vital River Laboratory Animal Technology Co., Ltd. Mice were hosted at special pathogen-free (SPF) environment of vivarium facility and acclimated to their new environment for at least 3 days prior to initiation of any experiments. Mice were between 6-8 weeks of age at the time of implantation.
Preparation of xenograft model: A549 was a human lung cancer cell line that harbored a KRASG12S mutation. The A549 cell line was purchased from the American Type Culture Collection (ATCC® CCL-185™). A549 cells were cultured in medium containing RPMI1640 plus 10% Fetal Bovine Serum (FBS) at 37° C. in an atmosphere of 5% CO2 in air. The medium was renewed every 2 to 3 days and tumor cells were routinely sub-cultured at a confluence of 80-90% by trypsin-EDTA. The cells growing in an exponential growth phase were harvested and counted for inoculation.
A549 tumor cells were implanted into mice subcutaneously. Briefly, 200 μL cell suspensions containing 5×10^6 tumor cells mixed with 50% Matrigel were subcutaneously implanted into the right flank of mouse using a syringe. Animal health and tumor growth were monitored daily. Tumor volume was measured twice a week by caliper when tumors were palpable and measurable. When tumor volumes reached a mean of 200 mm^3 (range of 152-259 mm^3), tumor-bearing mice were randomized into different groups with 8 mice in each group. The randomization date was denoted as treatment day 0.
Treatment: Treatment started on the day of randomization. The treatment start day was denoted as treatment day 0. Mice were dosed by oral administration of vehicle control solution, the compound of Formula I at 10 mg/kg/dose BID, the compound of Formula I at 30 mg/kg QD, or palbociclib at 25 mg/kg QD monotherapy treatment groups. Two additional groups received combination treatment of the compound of Formula I and palbociclib, one dosing the compound of Formula I at 10 mg/kg/dose BID with palbociclib at 25 mg/kg QD and the other dosing the compound of Formula I at 30 mg/kg QD with palbociclib at 25 mg/kg QD. The dosing volume for each compound was 5 mL/kg and interval of BID regimen was 8 hours. Palbociclib was dosed at one-hour post the compound of Formula I QD or first BID dose in combination groups. […] Per this practice, mice in the compound of Formula I at 10 mg/kg/dose BID monotherapy group and in the compound of Formula I at 10 mg/kg/dose BID with palbociclib at 25 mg/kg QD combination group were supplied with DietGel food starting on treatment day 20 and continuing through the remaining study period. Mice in the compound of Formula I at 30 mg/kg QD monotherapy group were supplied with DietGel food starting on treatment day 17 and continuing through the remaining study period. The study was terminated on treatment day 28 as being defined in the study protocol.
Measurements and calculations: Conditions of animal health and clinical signs of toxicity were monitored daily. Subcutaneous tumor volumes and mouse body weights were measured twice a week by caliper and balance, respectively. Tumor volume, percent of tumor growth inhibition (% TGI), percent of tumor regression, percent of body weight change (% BWC), and treatment related body weight loss (% trBWL) were calculated based on following formulas: […]
Percent of tumor growth inhibition (% TGI) • vii.
[formula] • viii. TVTi was the group mean tumor volume (TV) of treatment group at last treatment day • ix. […]

[7] = Body weight change and tolerability in A549 xenograft study; type: in vivo, Female Balb/c nude mice; details: for treatment related body weight loss (trBWL) category: palbociclib 25 mg/kg QD, Formula I 10 mg/kg BID and 30 mg/kg QD, both combinations with palbociclib 25 mg/kg QD
Protocol: Treatment: Treatment started on the day of randomization. The treatment start day was denoted as treatment day 0. Mice were dosed by oral administration of vehicle control solution, the compound of Formula I at 10 mg/kg/dose BID, the compound of Formula I at 30 mg/kg QD, or palbociclib at 25 mg/kg QD monotherapy treatment groups. Two additional groups received combination treatment of the compound of Formula I and palbociclib, one dosing the compound of Formula I at 10 mg/kg/dose BID with palbociclib at 25 mg/kg QD and the other dosing the compound of Formula I at 30 mg/kg QD with palbociclib at 25 mg/kg QD. The dosing volume for each compound was 5 mL/kg and interval of BID regimen was 8 hours. Palbociclib was dosed at one-hour post the compound of Formula I QD or first BID dose in combination groups. […] The study was terminated on treatment day 28 as being defined in the study protocol.
Measurements and calculations: Conditions of animal health and clinical signs of toxicity were monitored daily. Subcutaneous tumor volumes and mouse body weights were measured twice a week by caliper and balance, respectively. Tumor volume, percent of tumor growth inhibition (% TGI), percent of tumor regression, percent of body weight change (% BWC), and treatment related body weight loss (% trBWL) were calculated based on following formulas:
[formula] [formula] [formula] • i. BWdx was body weight group mean at treatment day x • ii. BWd0 was body weight group mean at treatment day 0
Percentage of treatment related body weight loss at treatment day x (% trBWLdx) was calculated based on the following: • iii. If % BWC in the treatment group was positive at treatment day x: % trBWLdx=0% • iv. If % BWC was negative in both the control and treatment groups at treatment day • x:
Treatment related body weight loss (trBWL) was categorized based on the following criteria: x≤5% was no loss, 5%<x≤10% was mild loss, 10%<x≤20% was moderate loss and x>20% was severe loss.

CC(=O)c1c(C)c2cnc(Nc3ccc(N4CCNCC4)cn3)nc2n(C2CCCC2)c1=O [Palbociclib, reference compound]
colony formation (in words) [1]: inhibition of colony formation dose dependently | reduction of colony formation [1]: about 10% | inhibition at 0.1 µM ([2]; Homo sapiens, NCI-H441, palbociclib 100 nM alone, FIG. 2B): ~60% | colony formation (in words) [2]: inhibition of colony formation dose dependently | inhibition at 0.1 µM ([3]; Homo sapiens, SW-620, SW620, palbociclib 100 nM alone, FIG. 3B): ~40% | colony formation (in words) [3]: inhibition of colony formation dose dependently | inhibition at 0.25 µM ([4]; Homo sapiens, LS180, LS-180, palbociclib 250 nM alone, FIG. 4B): ~40% | colony formation (in words) [4]: inhibition of colony formation dose dependently | colony formation (in words) [5]: inhibition of colony formation dose dependently | inhibition at 0.25 µM ([5]; Homo sapiens, palbociclib 250 nM alone, FIG. 5B): ~40% | % TGI (last treatment day) ([6]; palbociclib 25 mg/kg QD oral): 15% | % Tumor regression (last treatment day) ([6]; palbociclib 25 mg/kg QD oral): 0% | maximum trBWL ([7]; 28 days oral, palbociclib 25 mg/kg QD monotherapy): 400 | treatment related body weight loss (trBWL) category ([7]; 28 days oral): no trBWL

COCOC[C@H]1C[C@H]2COc3c(Sc4cnc(N5CCC6(CC5)CO[C@@H](C)[C@H]6N)c(CO)n4)ccnc3N2C1 [compound of Formula I, (3-((3S,4S)-4-amino-3-methyl-2-oxa-8-azaspiro[4.5]decan-8-yl)-6-(((6aS,8S)-8-((methoxymethoxy)methyl)-6a,7,8,9-tetrahydro-6H-pyrido[3,2-b]pyrrolo[1,2-d] [1,4]oxazin-4-yl)thio)pyrazin-2-yl)methanol]
colony formation (in words) [1]: inhibited the colony formation minimally | reduction of colony formation [1]: about 10% | colony formation (in words) [2]: inhibited the colony formation minimally | colony formation on increasing the concentration of Formula I ([2]; NCI-H441, FIG. 2B): robust inhibition of colony formation | colony formation (treatment showed about x% of colony formation) ([2]; NCI-H441, Formula I 250 nM alone, FIG. 2B): about 40% | colony formation (in words) [3]: inhibited the colony formation minimally | colony formation (treatment showed about x% of colony formation) ([3]; SW620, Formula I 250 nM alone, FIG. 3B): about 10% | colony formation on increasing the concentration of Formula I ([3]; SW620, single agent and combination, FIG. 3B): robust inhibition of colony formation | colony formation (in words) [4]: inhibited the colony formation minimally | colony formation (treatment showed about x% of colony formation) ([4]; LS-180, Formula I 250 nM alone, FIG. 4B): about 10% | colony formation (in words) [5]: inhibited the colony formation minimally | colony formation (treatment showed about x% of colony formation) ([5]; Formula I 250 nM alone, FIG. 5B): about 20% | % TGI (last treatment day) ([6]; Formula I 10 mg/kg BID oral): 52% | % Tumor regression (last treatment day) ([6]; Formula I 10 mg/kg BID oral): 0% | % TGI (last treatment day) ([6]; Formula I 30 mg/kg QD oral): 70% | % Tumor regression (last treatment day) ([6]; Formula I 30 mg/kg QD oral): 0% | clinical signs of toxicity or mortality ([7]; 28-day treatment period, both Formula I monotherapy groups and both combination groups): no clinical signs of toxicity or mortality were observed | treatment related body weight loss (trBWL) category ([7]; 28 days oral): mild trBWL
